Holding throughout (assay type): cell-based, human
Experiment [1] relates to HL60 cells. Briefly: Cell cycle assay, HL60 cells. The following applies: 72 h. How it is done: (§1) A panel of human myeloid leukemia cell lines (HL60, K562, KG1a, THP1 and U937) and HS-5 mesenchymal stromal cells lineage were cultured in Roswell Park Memorial Institute medium-1640 (RPMI; Sigma) containing 10% Fetal Bovine Serum (Gibco), glutamine (2 mM; Sigma), penicillin (100 μg/mL; Sigma), streptomycin (100 μg/mL; Sigma), and amphotericin B (0.25 μg/mL; Gibco). The cells were maintained in a humidified atmosphere at 37° C. and 5% CO2 and the experiments were performed when they reached exponential growth. For the assays, cells were seeded on a 24-well plate and treated or not with Foxy-5 for 72 hours.
(§2) Cells treated with Foxy or with vehicle were collected and fixed, at least, 24 hours in 70% ethanol. DNA was stained with a buffer containing iodide propidium (20 μg/mL; Sigma) and RNase A (10 μg/mL; Sigma). Cell fluorescence was detected with a FACSCalibur flow cytometer (BD). The proportions of cells in the cell cycle phases were analyzed by Modifit (Verify Software House Inc), according to DNA distributions.
(§3) As we observed a reduction in the leukemic proliferation after Foxy-5 treatment, we also analyzed the cell cycle phases. Leukemia cell lines were treated for 72 hours with Foxy-5, at doses of 50 μM and 100 μM, or vehicle, stained with the Piper buffer containing RNAse and iodeto propidium and then analyzed by flow cytometry.

The test system of experiment [2] is U937 cells. Briefly: Transwell chemotaxis assay toward CXCL12, U937 cells. Particulars: U937, Foxy-5 100 μM 72 h pretreatment, CXCL12 100 ng/mL, 24 h. The protocol: Leukemic cell lines, pretreated or not with Foxy-5 (72 hours of stimulation) were tested for chemotaxis in Transwell-based assays for Chemotaxis (6.5 mm diameter, 8 μm pore size; Corning). Polycarbonate membranes were incubated with poly-L-lysine (1 mg/mL) for 1 hour at 37° C. followed by saline buffer washing. Briefly, cells were collected, washed with media containing bovine serum albumin (0.1% BSA; Sigma), and then seeded at a density of 5×10^5 cells into the upper chamber of the transwell. The lower chamber was filled with media containing 0.5% BSA (negative control), media containing 10% FBS (positive control) and media 5 containing 0.5% BSA with CXCL12 (100 ng/ml; Peprotech) (Melo et al., 2014). Following 6 h or 24 h of incubation at 37° C., cells that migrated into the lower chamber were collected, centrifuged, resuspended in saline buffer and counted. The number of migrated cells was expressed as a percentage of the input, i.e., the cells number applied directly to the lower compartment in parallel wells. The migration of cells was normalized to 100%+/−standard deviation (SD) of triplicates (Favaro et al., 2013).
We investigated whether restoring of WNT5A could enable the modulation CXCL12-induced chemotaxis of leukemia cells. […]

Experiment [3] deals with KG1a cells. Briefly: Cell cycle assay, KG1a cells. Particulars: 72 h. How it is done:
as §1, §2, §3

Experiment [4] concerns PI3K and MAPK pathways. Briefly: Western blot of PI3K and MAPK pathway proteins, K562 cells. The following applies: K562, Foxy-5 50 μM or 100 μM, 72 h. The protocol: Equal amounts of protein were resolved by sodium dodecyl sulphate-polyacrylamide gel electrophoresis and transferred onto nitrocellulose membranes (Millipore). Detection was carried out with the chemiluminescent substrate using an ECL Plus (GE-Healthcare). Monoclonal antibodies against P70S6K (sc-8418) and polyclonal antibodies against Actin (sc-1616), AKT1/2/3 (sc-8312), BAX (sc-493), BCL-XL (sc-8392), GAPDH (sc-32,233), p-AKT1/2/3 (sc-33,437) and p-P70S6K (sc-7984) were purchased from Santa Cruz Biotechnology. ERK1/2 ([pT185/Y187]; 44-680G) and ERK1/2 (44-654G) from Invitrogen. Quantitative blots were carried out using the UN-SCAN-IT densitometer software.
Based on the above results, the activity of proteins of PI3K and MAPK pathways were then investigated in a western blot. Briefly, U937 and K562 cells were seeded and treated with Foxy-5 (50 μM or 100 μM) or vehicle for 72 hours. Then, equal amounts of protein were used for total extracts followed by electrophoresis on 12% SDS polyacrylamide gels under reducing conditions, transferred to nitrocellulose membranes, blocked with 10% skimmed milk in TBS-0.1% Tween for 1 hour, stained with appropriate primary and secondary antibodies. The membranes were visualized with chemiluminescence using an ECL Plus (GE-Healthcare). Quantitative analyses of the optical intensities of the protein bands were determined with Un-Scan-It Gel 6.1 (Silk Scientific Inc.).

The subject of experiment [5] is K562 cells. Briefly: Cell growth assay, K562 cells. Particulars: Foxy-5 100 μM, 72 h. How it is done:
as §1
Cells treated with Foxy or with vehicle were collected and cell number was evaluated by manual counting in monoculture and by microscopy with Image J software analysis in 2D culture.
Next, we evaluated the proliferation rates since this process is modulated by ROS. We treated the cells with Foxy-5 (100 μM) or with vehicle (DMSO) during 72 hours, and then cell growth was analyzed by counting the cells in monoculture, manually, or by the Image J software analysis of the 2D cultures. […] Similar results were obtained in the 2D culture system using leukemia cells and HS-5 mesenchymal stromal cells.

Experiment [6] relates to U937 cells. Briefly: Cell differentiation assay with PMA, U937 cells. Particulars: U937, PMA (200 nM), 72 hours, morphology by microscopy. How it is done:
Cells were subjected to treatment with Foxy-5 or with vehicle, in the presence or absence of PMA (200 nM). After 72 hours, adherent cells were washed with PBS and their morphology was examined using a Zeiss Axi-oskope 2 Plus microscope (Carl Zeiss AG). The program ImageJ was used to assess differentiation.
PMA reagent is a typical inducer of AML cell differentiation through generation of ROS. As U937 leukemia cell lineage corresponds to a model of differentiated monocyte and/or macrophage following treatment with PMA, we examined the effects of Foxy-5 treatment on U937 differentiation-inducing PMA. Following treatment with PMA for 72 hours, cells were examined by microscopy to detect morphology. The majority of cells treated with vehicle and stimulated with PMA differentiated into macrophages and adhered to the plates.

No end group written: not given here. *: point of attachment. For = O=C*

For “Foxy-5: Formylated hexapeptide fragment of WNT5A: MDGCEL (SEQ. ID. NO. 3) with methionine in position 1 as N-formyl methionine; WNT5A-mimicking compound (For-MDGCEL; listed as Homo sapiens)”, the “cells in G0/G1 cell cycle phase (average)” value in experiment [1] (HL60, co-cultured with HS5 stromal cells, Foxy-5 50 μM) came to 53.47%; in experiment [1] (HL60, co-cultured with HS5 stromal cells, Foxy-5 100 μM), 70.68%; in experiment [1] (HL60, monoculture, Foxy-5 50 μM) it was 51.57%; in experiment [1] (HL60, monoculture, Foxy-5 100 μM), 53.02%; in experiment [3] (co-cultured with HS5 stromal cells, Foxy-5 50 μM), 78.58%; in experiment [3] (co-cultured with HS5 stromal cells, Foxy-5 100 μM), 76.53%. In addition, the “cells in G0/G1 cell cycle phase (average)” value in experiment [3] (monoculture, Foxy-5 50 μM) was 69.95%; in experiment [3] (monoculture, Foxy-5 100 μM), 73.79%. In addition, the “CXCL12-induced chemotaxis (migrated cells as percentage of the input, average)” value in experiment [2] is 40.35%. In addition, in experiment [4], the “phosphorylation level of AKT compared to vehicle-treated cells” value was “lower phosphorylation levels”. For the same substance, the “phosphorylation level of ERK compared to vehicle-treated cells” value in experiment [4] is “lower phosphorylation levels”. For the same substance, the “protein level of cyclin D1 compared to vehicle-treated cells” value in experiment [4] is listed as “reduced protein level”. Also, the “reduced cell growth compared to vehicle treated cells” value in experiment [5] (K562, 2D culture with HS-5 stromal cells) was 1.79 fold decrease; in experiment [5] (K562, monoculture), 3.12 fold decrease. In experiment [6], the “PMA-mediated differentiation compared with PMA-stimulated cells treated with vehicle” value is given as “reduced PMA-mediated differentiation”.

(Values after patent US20240226234A1, “WNT5A PEPTIDES FOR THE TREATMENT OF ACUTE M[…]” (W[…], priority 2021, published 2024).)
